target: human Nav 1.8 (Homo sapiens, UniProt Q9Y5Y9); test: E-VIPR assay detecting and measuring Nav inhibition properties; type: cell-based; settings: HEK cells expressing a truncated form of human Nav 1.8; compound numbers without "*" (not marked as run in the presence of human serum); read-out: measured IC50 value in the E-VIPR Assay
Procedure, shortened: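 Nav inhibition was read by E-VIPR: cells were electrically stimulated while coumarin/oxonol FRET emissions were recorded. Cells were HEK expressing a truncated human Nav 1.8 and co-transduced with KIR2.1, and were assayed in 25% final human serum.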

human Nav 1.8, sequence (Q9Y5Y9 126-399 limits assumed): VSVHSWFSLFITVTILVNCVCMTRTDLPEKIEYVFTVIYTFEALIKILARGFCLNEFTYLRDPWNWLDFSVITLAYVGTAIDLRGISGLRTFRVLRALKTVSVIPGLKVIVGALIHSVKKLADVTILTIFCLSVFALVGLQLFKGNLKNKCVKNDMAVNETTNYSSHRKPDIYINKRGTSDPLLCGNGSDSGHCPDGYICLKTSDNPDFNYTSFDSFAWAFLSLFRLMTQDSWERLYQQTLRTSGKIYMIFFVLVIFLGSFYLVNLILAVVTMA
human Nav 1.8, sequence (Q9Y5Y9 660-890 limits assumed): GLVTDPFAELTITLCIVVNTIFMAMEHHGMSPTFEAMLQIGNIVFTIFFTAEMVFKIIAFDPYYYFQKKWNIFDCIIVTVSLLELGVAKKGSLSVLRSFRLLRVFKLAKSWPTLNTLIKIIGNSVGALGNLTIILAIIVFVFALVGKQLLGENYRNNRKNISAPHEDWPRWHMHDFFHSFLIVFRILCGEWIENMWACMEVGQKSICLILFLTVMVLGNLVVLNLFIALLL
human Nav 1.8, sequence (Q9Y5Y9 1148-1722 limits assumed): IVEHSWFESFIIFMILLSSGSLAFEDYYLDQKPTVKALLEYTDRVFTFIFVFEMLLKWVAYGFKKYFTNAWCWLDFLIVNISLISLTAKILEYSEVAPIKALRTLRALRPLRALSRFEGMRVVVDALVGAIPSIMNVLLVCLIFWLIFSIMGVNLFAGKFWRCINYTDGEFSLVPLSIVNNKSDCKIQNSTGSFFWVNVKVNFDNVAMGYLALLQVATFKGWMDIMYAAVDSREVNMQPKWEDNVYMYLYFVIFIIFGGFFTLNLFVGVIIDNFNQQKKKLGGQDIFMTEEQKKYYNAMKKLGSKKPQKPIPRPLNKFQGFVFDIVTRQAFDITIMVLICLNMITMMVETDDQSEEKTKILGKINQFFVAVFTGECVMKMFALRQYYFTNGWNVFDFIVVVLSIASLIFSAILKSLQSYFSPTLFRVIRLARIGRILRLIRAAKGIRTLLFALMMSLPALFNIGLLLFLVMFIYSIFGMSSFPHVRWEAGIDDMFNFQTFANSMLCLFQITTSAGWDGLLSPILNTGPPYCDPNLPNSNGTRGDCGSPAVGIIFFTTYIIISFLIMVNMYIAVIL

Row | SMILES | IC50 [µM]
1 | COc1c([C@H]2[C@H](C(=O)Nc3cc(C(=O)N4CCNCC4)ncc3F)O[C@@](C)(C(F)(F)F)[C@H]2C)ccc(F)c1F [Compound 16, (2R,3S,4S,5R)-3-(3,4-difluoro-2-methoxy-phenyl)-N-[5-fluoro-2-(piperazine-1-carbonyl)-4-pyridyl]-4,5-dimethyl-5-(trifluoromethyl)tetrahydrofuran-2-carboxamide] | 0.01 to 0.1
2 | COc1c([C@H]2[C@H](C(=O)Nc3cccc(C(=O)N4CCNCC4)n3)O[C@@](C)(C(F)(F)F)[C@H]2C)ccc(F)c1F [Compound 17, (2R,3S,4S,5R)-3-(3,4-difluoro-2-methoxyphenyl)-4,5-dimethyl-N-(6-(piperazine-1-carbonyl)pyridin-2-yl)-5-(trifluoromethyl)tetrahydrofuran-2-carboxamide] | 0.01 to 0.1
3 | COc1c([C@H]2[C@H](C(=O)Nc3cc(C(=O)N4CCNCC4)ccn3)O[C@@](C)(C(F)(F)F)[C@H]2C)ccc(F)c1F [Compound 18, (2R,3S,4S,5R)-3-(3,4-difluoro-2-methoxyphenyl)-4,5-dimethyl-N-(4-(piperazine-1-carbonyl)pyridin-2-yl)-5-(trifluoromethyl)tetrahydrofuran-2-carboxamide] | 0.01 to 0.1
4 | COc1c([C@H]2[C@H](C(=O)Nc3ccnc(C(=O)N4CCNCC4)n3)O[C@@](C)(C(F)(F)F)[C@H]2C)ccc(F)c1F [Compound 19, (2R,3S,4S,5R)-3-(3,4-difluoro-2-methoxyphenyl)-4,5-dimethyl-N-(2-(piperazine-1-carbonyl)pyrimidin-4-yl)-5-(trifluoromethyl)tetrahydrofuran-2-carboxamide] | 0.01 to 0.1
5 | COc1c([C@H]2[C@H](C(=O)Nc3nccc(C(=O)N4CCNCC4)n3)O[C@@](C)(C(F)(F)F)[C@H]2C)ccc(F)c1F [Compound 20, (2R,3S,4S,5R)-3-(3,4-difluoro-2-methoxyphenyl)-4,5-dimethyl-N-(4-(piperazine-1-carbonyl)pyrimidin-2-yl)-5-(trifluoromethyl)tetrahydrofuran-2-carboxamide] | 0.01 to 0.1
6 | COc1c([C@H]2[C@H](C(=O)Nc3cc(C(=O)N4CCNCC4)ncn3)O[C@@](C)(C(F)(F)F)[C@H]2C)ccc(F)c1F [Compound 21, (2R,3S,4S,5R)-3-(3,4-difluoro-2-methoxyphenyl)-4,5-dimethyl-N-(6-(piperazine-1-carbonyl)pyrimidin-4-yl)-5-(trifluoromethyl)tetrahydrofuran-2-carboxamide] | 0.01 to 0.1
7 | COc1c([C@H]2[C@H](C(=O)Nc3cc(C(=O)N4CCN(C)CC4)ncn3)O[C@@](C)(C(F)(F)F)[C@H]2C)ccc(F)c1F [Compound 22, (2R,3S,4S,5R)-3-(3,4-difluoro-2-methoxyphenyl)-4,5-dimethyl-N-(6-(4-methylpiperazine-1-carbonyl)pyrimidin-4-yl)-5-(trifluoromethyl)tetrahydrofuran-2-carboxamide] | 0.1 to 1
8 | COc1c([C@H]2[C@H](C(=O)Nc3cc(C(N)=O)ncc3[Si](C)(C)C)O[C@@](C)(C(F)(F)F)[C@H]2C)ccc(F)c1F [Compound 23, 4-((2R,3S,4S,5R)-3-(3,4-difluoro-2-methoxyphenyl)-4,5-dimethyl-5-(trifluoromethyl)tetrahydrofuran-2-carboxamido)-5-(trimethylsilyl)picolinamide] | 0.1 to 1
9 | CNC(=O)c1cc(NC(=O)[C@@H]2O[C@@](C)(C(F)(F)F)[C@@H](C)[C@H]2c2ccc(F)c(F)c2OCCO)ccn1 [Compound 38, 4-((2R,3S,4S,5R)-3-(3,4-difluoro-2-(2-hydroxyethoxy)phenyl)-4,5-dimethyl-5-(trifluoromethyl)tetrahydrofuran-2-carboxamido)-N-methylpicolinamide] | < 0.01
10 | C[C@@H](COc1c([C@H]2[C@H](C(=O)Nc3ccnc(C(N)=O)c3)O[C@@](C)(C(F)(F)F)[C@H]2C)ccc(F)c1F)N1CC2(COC2)C1 [Compound 40, 4-((2R,3S,4S,5R)-3-(2-((S)-2-(2-oxa-6-azaspiro[3.3]heptan-6-yl)propoxy)-3,4-difluorophenyl)-4,5-dimethyl-5-(trifluoromethyl)tetrahydrofuran-2-carboxamido)picolinamide] | < 0.01
11 | CNC(=O)c1cc(NC(=O)[C@@H]2O[C@@](C)(C(F)(F)F)[C@@H](C)[C@H]2c2ccc(F)c(F)c2OC[C@@H](C)N2CC3(COC3)C2)ccn1 [Compound 41, 4-((2R,3S,4S,5R)-3-(2-((R)-2-(2-oxa-6-azaspiro[3.3]heptan-6-yl)propoxy)-3,4-difluorophenyl)-4,5-dimethyl-5-(trifluoromethyl)tetrahydrofuran-2-carboxamido)-N-methylpicolinamide] | 0.1 to 1
12 | C[C@H](COc1c([C@H]2[C@H](C(=O)Nc3ccnc(C(N)=O)c3)O[C@@](C)(C(F)(F)F)[C@H]2C)ccc(F)c1F)N1CC2(COC2)C1 [Compound 42, 4-((2R,3S,4S,5R)-3-(2-((R)-2-(2-oxa-6-azaspiro[3.3]heptan-6-yl)propoxy)-3,4-difluorophenyl)-4,5-dimethyl-5-(trifluoromethyl)tetrahydrofuran-2-carboxamido)picolinamide] | 0.01 to 0.1
13 | CNC(=O)c1cc(NC(=O)[C@@H]2O[C@@](C)(C(F)(F)F)[C@@H](C)[C@H]2c2ccc(F)c(F)c2OC[C@H](C)N2CC3(COC3)C2)ccn1 [Compound 43, 4-((2R,3S,4S,5R)-3-(2-((S)-2-(2-oxa-6-azaspiro[3.3]heptan-6-yl)propoxy)-3,4-difluorophenyl)-4,5-dimethyl-5-(trifluoromethyl)tetrahydrofuran-2-carboxamido)-N-methylpicolinamide] | < 0.01

Next, values leading:

Row | IC50 [µM] | SMILES
14 | 0.01 to 0.1 | C[C@H]1[C@@H](c2ccc(F)c(F)c2OCCN(C)C)[C@H](C(=O)Nc2ccnc(C(N)=O)c2)O[C@@]1(C)C(F)(F)F [Compound 44, 4-((2R,3S,4S,5R)-3-(2-(2-(dimethylamino)ethoxy)-3,4-difluorophenyl)-4,5-dimethyl-5-(trifluoromethyl)tetrahydrofuran-2-carboxamido) picolinamide]
15 | < 0.01 | C[C@H]1[C@@H](c2ccc(F)c(F)c2OCCn2ccnc2)[C@H](C(=O)Nc2ccnc(C(N)=O)c2)O[C@@]1(C)C(F)(F)F [Compound 45, 4-((2R,3S,4S,5R)-3-(2-(2-(1H-imidazol-1-yl)ethoxy)-3,4-difluorophenyl)-4,5-dimethyl-5-(trifluoromethyl)tetrahydrofuran-2-carboxamido)picolinamide]
16 | 0.01 to 0.1 | COC1(C)CN(CCOc2c([C@H]3[C@H](C(=O)Nc4ccnc(C(N)=O)c4)O[C@@](C)(C(F)(F)F)[C@H]3C)ccc(F)c2F)C1 [Compound 48, 4-((2R,3S,4S,5R)-3-(3,4-difluoro-2-(2-(3-methoxy-3-methylazetidin-1-yl)ethoxy)phenyl)-4,5-dimethyl-5-(trifluoromethyl)tetrahydrofuran-2-carboxamido)picolinamide]
17 | 0.01 to 0.1 | C[C@H]1[C@@H](c2ccc(F)c(F)c2OCCN2CC[C@H](F)C2)[C@H](C(=O)Nc2ccnc(C(N)=O)c2)O[C@@]1(C)C(F)(F)F [Compound 49, 4-((2R,3S,4S,5R)-3-(3,4-difluoro-2-(2-((S)-3-fluoropyrrolidin-1-yl)ethoxy)phenyl)-4,5-dimethyl-5-(trifluoromethyl)tetrahydrofuran-2-carboxamido)picolinamide]
18 | < 0.01 | C[C@H]1[C@@H](c2ccc(F)c(F)c2OCCN2CCOC3CC32)[C@H](C(=O)Nc2ccnc(C(N)=O)c2)O[C@@]1(C)C(F)(F)F (stereo partly drawn) [Compound 50, 4-((2R,3S,4S,5R)-3-(2-(2-(2-oxa-5-azabicyclo[4.1.0]heptan-5-yl)ethoxy)-3,4-difluorophenyl)-4,5-dimethyl-5-(trifluoromethyl)tetrahydrofuran-2-carboxamido)picolinamide]
19 | < 0.01 | CC1CN(CCOc2c([C@H]3[C@H](C(=O)Nc4ccnc(C(N)=O)c4)O[C@@](C)(C(F)(F)F)[C@H]3C)ccc(F)c2F)CCO1 (stereo partly drawn) [Compound 51, 4-((2R,3S,4S,5R)-3-(3,4-difluoro-2-(2-(2-methylmorpholino)ethoxy)phenyl)-4,5-dimethyl-5-(trifluoromethyl)tetrahydrofuran-2-carboxamido)picolinamide]
20 | < 0.01 | COC1CN(CCOc2c([C@H]3[C@H](C(=O)Nc4ccnc(C(N)=O)c4)O[C@@](C)(C(F)(F)F)[C@H]3C)ccc(F)c2F)C1 [Compound 52, 4-((2R,3S,4S,5R)-3-(3,4-difluoro-2-(2-(3-methoxyazetidin-1-yl)ethoxy)phenyl)-4,5-dimethyl-5-(trifluoromethyl)tetrahydrofuran-2-carboxamido)picolinamide]
21 | < 0.01 | C[C@H]1[C@@H](c2ccc(F)c(F)c2OCCN2CC3(COC3)C2)[C@H](C(=O)Nc2ccnc(C(N)=O)c2)O[C@@]1(C)C(F)(F)F [Compound 53, 4-((2R,3S,4S,5R)-3-(2-(2-(2-oxa-6-azaspiro[3.3]heptan-6-yl)ethoxy)-3,4-difluorophenyl)-4,5-dimethyl-5-(trifluoromethyl)tetrahydrofuran-2-carboxamido)picolinamide]
22 | 0.01 to 0.1 | C[C@H]1[C@@H](c2ccc(F)c(F)c2OCCN2CCC2)[C@H](C(=O)Nc2ccnc(C(N)=O)c2)O[C@@]1(C)C(F)(F)F [Compound 54, 4-((2R,3S,4S,5R)-3-(2-(2-(azetidin-1-yl)ethoxy)-3,4-difluorophenyl)-4,5-dimethyl-5-(trifluoromethyl)tetrahydrofuran-2-carboxamido)picolinamide]
23 | < 0.01 | C[C@H]1[C@@H](c2ccc(F)c(F)c2OCCN2C[C@H]3COC[C@H]3C2)[C@H](C(=O)Nc2ccnc(C(N)=O)c2)O[C@@]1(C)C(F)(F)F [Compound 55, 4-((2R,3S,4S,5R)-3-(3,4-difluoro-2-(2-((3aR,6aS)-tetrahydro-1H-furo[3,4-c]pyrrol-5(3H)-yl)ethoxy)phenyl)-4,5-dimethyl-5-(trifluoromethyl)tetrahydrofuran-2-carboxamido)picolinamide]
24 | < 0.01 | C[C@@H]1COCCN1CCOc1c([C@H]2[C@H](C(=O)Nc3ccnc(C(N)=O)c3)O[C@@](C)(C(F)(F)F)[C@H]2C)ccc(F)c1F [Compound 56, 4-((2R,3S,4S,5R)-3-(3,4-difluoro-2-(2-((R)-3-methylmorpholino)ethoxy)phenyl)-4,5-dimethyl-5-(trifluoromethyl)tetrahydrofuran-2-carboxamido)picolinamide]
